Where “and” joins values, the source holds several entries; their conditions need not be identical. Equal values may be shown once. Inconclusive results and toxic doses are left out. How the source made its calls: active means survival T/C of 150% or more; inactive means T/C below 125% in these data.
Tested on: P388 leukemia ip, CD2F1 mice, survival T/C
Assay: NCI In Vivo Anticancer Drug Screen. Data for tumor model P388 Leukemia (intraperitoneal) in CD2F1 (CDF1) mice
Settings: endpoint: median survival time, higher = longer survival
Procedure, shortened: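 Mice carrying the transplanted tumor received test compound or vehicle. Survival was recorded in each group, and the value is the treated-group measurement divided by that of the vehicle-treated control group.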

[1] = dose: 25.0 mg/kg/injection, schedule: Q01DX009 (ip), vehicle: saline with Tween-80
[2] = dose: 50.0 mg/kg/injection, schedule: Q01DX009 (ip), vehicle: Klucel (hydroxypropylcellulose) (HPC)
[3] = dose: 50.0 mg/kg/injection, schedule: Q01DX009 (ip), vehicle: saline with Tween-80
[4] = dose: 100.0 mg/kg/injection, schedule: Q01DX009 (ip), vehicle: Klucel (hydroxypropylcellulose) (HPC)
[5] = dose: 100.0 mg/kg/injection, schedule: Q01DX009 (ip), vehicle: saline with Tween-80
[6] = dose: 200.0 mg/kg/injection, schedule: Q01DX009 (ip), vehicle: Klucel (hydroxypropylcellulose) (HPC)
[7] = dose: 240.0 mg/kg/injection, schedule: Q01DX005 (ip), vehicle: saline with Tween-80
[8] = dose: 60.0 mg/kg/injection, schedule: Q01DX005 (ip), vehicle: saline with Tween-80
[9] = dose: 120.0 mg/kg/injection, schedule: Q01DX005 (ip), vehicle: saline with Tween-80
[10] = dose: 60.0 mg/kg/injection, schedule: Q01DX005 (ip), vehicle: Klucel (hydroxypropylcellulose) (HPC)
[11] = dose: 50.0 mg/kg/injection, schedule: Q01DX005 (ip), vehicle: Klucel (hydroxypropylcellulose) (HPC)
[12] = dose: 100.0 mg/kg/injection, schedule: Q01DX005 (ip), vehicle: Klucel (hydroxypropylcellulose) (HPC)
[13] = dose: 200.0 mg/kg/injection, schedule: Q01DX005 (ip), vehicle: Klucel (hydroxypropylcellulose) (HPC)
[14] = dose: 50.0 mg/kg/injection, schedule: Q01DX009 (ip), vehicle: saline
[15] = dose: 100.0 mg/kg/injection, schedule: Q01DX009 (ip), vehicle: saline
[16] = dose: 200.0 mg/kg/injection, schedule: Q01DX009 (ip), vehicle: saline

Measured: T/C

COc1ccc(-c2coc3cc(O)cc(O)c3c2=O)cc1
inactive: [1] 94 % of control | [2] 110 % of control | [3] 97 % of control | [4] 107 % of control | [5] 93 % of control | [6] 104 % of control | dose: 400.0 mg/kg/injection, schedule: Q01DX009 (ip), vehicle: Klucel (hydroxypropylcellulose) (HPC) 96 % of control

CC(C)c1cc(=O)c2cc3[nH]c4ccccc4c3cc2[nH]1
inactive: dose: 50.0 mg/kg/injection, schedule: Q01DX005 (ip), vehicle: saline with Tween-80 97 % of control | dose: 100.0 mg/kg/injection, schedule: Q01DX005 (ip), vehicle: saline with Tween-80 87 % of control | dose: 200.0 mg/kg/injection, schedule: Q01DX005 (ip), vehicle: saline with Tween-80 90 % of control

O=S(=O)(c1ccc(N=C=S)cc1)c1ccc(N=C=S)cc1
inactive: dose: 25.0 mg/kg/injection, schedule: Q01DX005 (ip), vehicle: Klucel (hydroxypropylcellulose) (HPC) 112 % of control

O=C(Nc1cc(Cl)ccc1Cl)Nc1ccc(Cl)cc1C(=O)c1ccccc1
inactive: dose: 15.0 mg/kg/injection, schedule: Q01DX005 (ip), vehicle: saline with Tween-80 89 % of control | dose: 30.0 mg/kg/injection, schedule: Q01DX005 (ip), vehicle: saline with Tween-80 90 % of control | [7] 90 % of control

O=c1[nH]cnc2cc(NCc3ccccc3)c([N+](=O)[O-])cc12
inactive: dose: 100.0 mg/kg/injection, schedule: Q04DX003 (ip), vehicle: Klucel (hydroxypropylcellulose) (HPC) 100 % of control | dose: 200.0 mg/kg/injection, schedule: Q04DX003 (ip), vehicle: Klucel (hydroxypropylcellulose) (HPC) 96 % of control | dose: 400.0 mg/kg/injection, schedule: Q04DX003 (ip), vehicle: Klucel (hydroxypropylcellulose) (HPC) 94 % of control

NC(N)=NCCC(Cl)C(=O)O (stereo not drawn)
inactive: dose: 50.0 mg/kg/injection, schedule: Q01DX005 (ip), vehicle: saline 101 % of control | dose: 100.0 mg/kg/injection, schedule: Q01DX005 (ip), vehicle: saline 102 % of control | dose: 200.0 mg/kg/injection, schedule: Q01DX005 (ip), vehicle: saline 97 % of control

CC(C)CC(=O)O[C@@H]1OC=C(COC2OC(CO)C(O)C(O)C2O)[C@H]2CC(=O)[C@@H](C)[C@@H]12 (stereo partly drawn)
inactive: dose: 8.0 mg/kg/injection, schedule: Q01DX005 (ip), vehicle: saline 118 % of control | dose: 16.0 mg/kg/injection, schedule: Q01DX005 (ip), vehicle: saline 116 % of control | dose: 32.0 mg/kg/injection, schedule: Q01DX005 (ip), vehicle: saline 107 % of control | dose: 64.0 mg/kg/injection, schedule: Q01DX005 (ip), vehicle: saline 110 % of control

CCCCCCC(=O)CC(SCCO)c1ccccc1Cl (stereo not drawn)
inactive: [8] 92 % of control | [9] 107 % of control | [7] 114 % of control

CC(=NCCN=C(C)c1ccccc1O)c1ccccc1O
inactive: [2] 105 % of control | [4] 114 % of control | [6] 115 % of control

CSC(SC)c1cc(C)no1
inactive: [8] 107 % of control | [9] 101 % of control | [7] 103 % of control

NCCOc1c2occc2cc2ccc(=O)oc12
inactive: dose: 100.0 mg/kg/injection, schedule: Q01DX001 (ip), vehicle: saline 110 % of control

Cn1c(=O)[nH]c(N)c(C(=O)CCl)c1=O
inactive: [8] 97 % of control | [9] 105 % of control

[Cl][Cu][Cl].c1ccc2[nH]cnc2c1.c1ccc2[nH]cnc2c1
inactive: dose: 6.25 mg/kg/injection, schedule: Q01DX009 (ip), vehicle: Klucel (hydroxypropylcellulose) (HPC) 113 % of control | dose: 12.5 mg/kg/injection, schedule: Q01DX009 (ip), vehicle: Klucel (hydroxypropylcellulose) (HPC) 104 % of control | dose: 25.0 mg/kg/injection, schedule: Q01DX009 (ip), vehicle: Klucel (hydroxypropylcellulose) (HPC) 100 % of control

CCCCCCCCCCN(CCCCCCCCCC)C1CC(OC2CC(O)(C(C)=O)Cc3c(O)c4c(c(O)c32)C(=O)c2c(OC)cccc2C4=O)OC(C)C1O (stereo not drawn)
inactive: dose: 3.13 mg/kg/injection, schedule: Q01DX009 (ip), vehicle: distilled water + Tween-80 113 % of control | dose: 4.7 mg/kg/injection, schedule: Q04DX003 (ip), vehicle: other 104 % of control | dose: 6.25 mg/kg/injection, schedule: Q01DX009 (ip), vehicle: distilled water + Tween-80 96 % of control | dose: 9.4 mg/kg/injection, schedule: Q04DX003 (ip), vehicle: other 104 % of control | dose: 12.5 mg/kg/injection, schedule: Q01DX009 (ip), vehicle: distilled water + Tween-80 102 % of control | dose: 18.8 mg/kg/injection, schedule: Q04DX003 (ip), vehicle: other 112 % of control | dose: 37.5 mg/kg/injection, schedule: Q04DX003 (ip), vehicle: other 105 % of control | dose: 75.0 mg/kg/injection, schedule: Q04DX003 (ip), vehicle: other 103 % of control

CCOC(=O)C1CCC(=O)N1Cc1c[nH]c2ccccc12 (stereo not drawn)
inactive: [8] 92 % of control | [9] 94 % of control | [7] 94 % of control

O=C(NC1COB(c2ccccc2)OC1c1ccc([N+](=O)[O-])cc1)C(Cl)Cl (stereo not drawn)
inactive: [10] 97 % of control | dose: 120.0 mg/kg/injection, schedule: Q01DX005 (ip), vehicle: Klucel (hydroxypropylcellulose) (HPC) 97 % of control | dose: 240.0 mg/kg/injection, schedule: Q01DX005 (ip), vehicle: Klucel (hydroxypropylcellulose) (HPC) 99 % of control

CC(OC(=O)C1C2C=CC(C2)C1C(=O)O)c1cccnc1 (stereo not drawn)
inactive: [11] 97 % of control | [12] 100 % of control | [13] 98 % of control

CC1(C)CC(=O)C(C(=O)c2ccccc2)=[N+]1[O-]
inactive: [11] 97 % of control | [12] 100 % of control | [13] 99 % of control

CCN1CCc2nc(N)oc2CC1
inactive: [14] 107 % of control | [15] 110 % of control | [16] 115 % of control

O=C1c2ccccc2CC1CS(=O)(=O)CC1Cc2ccccc2C1=O (stereo not drawn)
inactive: dose: 100.0 mg/kg/injection, schedule: Q04DX002 (ip), vehicle: saline 100 % of control | dose: 200.0 mg/kg/injection, schedule: Q04DX002 (ip), vehicle: saline 100 % of control | dose: 400.0 mg/kg/injection, schedule: Q04DX002 (ip), vehicle: saline 91 % of control and 96 % of control

O=[N+]([O-])[O-].OCCNCCNCC[OH2+].OCCNCCNCC[OH2+].[Co+2]
inactive: [14] 95 % of control | [15] 104 % of control | [16] 103 % of control

C=CC1=C(C)C(/C=c2/[nH]/c(=C\c3[nH]c(/C=C4/NC(=O)C(C)=C4C=C)c(C)c3CCC(=O)O)c(CCC(=O)O)c2C)=NC1=O
inactive: [3] 95 % of control | [5] 91 % of control | dose: 200.0 mg/kg/injection, schedule: Q01DX009 (ip), vehicle: saline with Tween-80 88 % of control

CCN(CC)c1ccc2cc(-c3nc4ccccc4[nH]3)c(=O)oc2c1
inactive: dose: 12.5 mg/kg/injection, schedule: Q01DX009 (ip), vehicle: saline with Tween-80 96 % of control | [1] 95 % of control | [3] 88 % of control and 98 % of control | [5] 95 % of control

CCOC(=O)c1ccc(NC(=O)Nc2cccc(NC(C)=O)c2)cc1
inactive: dose: 15.0 mg/kg/injection, schedule: Q01DX005 (ip), vehicle: Klucel (hydroxypropylcellulose) (HPC) 92 % of control | dose: 30.0 mg/kg/injection, schedule: Q01DX005 (ip), vehicle: Klucel (hydroxypropylcellulose) (HPC) 91 % of control | [10] 89 % of control

COC(=O)CC(OC1CC(N)C(O)C(C)O1)c1c(O)c2c(c(O)c1CO)C(=O)c1cccc(OC)c1C2=O (stereo not drawn)
inactive: dose: 100.0 mg/kg/injection, schedule: Q04DX003 (ip), vehicle: water 105 % of control | dose: 200.0 mg/kg/injection, schedule: Q04DX003 (ip), vehicle: water 121 % of control

Cc1ccc2c(c1)P(=O)(c1ccccc1C(O)(C(F)(F)F)C(F)(F)F)c1cc(C)ccc1O2
inactive: dose: 100.0 mg/kg/injection, schedule: Q04DX002 (ip), vehicle: Klucel (hydroxypropylcellulose) (HPC) 101 % of control | dose: 200.0 mg/kg/injection, schedule: Q04DX002 (ip), vehicle: Klucel (hydroxypropylcellulose) (HPC) 94 % of control | dose: 400.0 mg/kg/injection, schedule: Q04DX002 (ip), vehicle: Klucel (hydroxypropylcellulose) (HPC) 90 % of control

From PubChem BioAssay AID330 (DTP/NCI, 2004)
